Laboratory results published in patent publication US5405834A, “Prodrug derivatives of thyrotropin-releasing hormone (TRH)” (priority 1989, dated 1995).
Like-named read-outs stand apart in the source and are kept apart here.

Experiments:
[1] = Hydrolysis in aqueous buffer solutions (HPLC); format: physicochemical
Description: […] The initial concentration of the derivatives was in the range 10^-5 -10^-3 M. At various times an aliquot of the solutions was withdrawn and analyzed by HPLC for remaining (intact) derivative as well as for TRH. For the plasma solutions the aliquot (250 μl) withdrawn was added to 500 μl of a 2% solution of zinc sulphate in methanol-water (1:1 v/v) in order to deproteinize the plasma. After mixing and centrifugation for 3 min at 13,000 rpm, 20 μl of the clear supernatant was analyzed by HPLC as described above. The reaction conditions used for the studies with the pyroglutamyl aminopeptidase enzyme were identical to those previously described by Bundgaard & Moss (1989).
(§1) An HPLC method was used for the determination of TRH and its derivatives. […] For the determination of TRH formed upon hydrolysis of the various derivatives a mobile phase system consisting of acetonitrile-0.1% phosphoric acid (1:20 v/v) containing […] triethylamine was used. The flow rate was 1.5 ml min and the column effluent was monitored at 215 nm. Quantitation of the compounds was done by measuring the peak heights in relation to those of standards chromatographed under the same conditions.

[2] = target: T1, pyroglutamyl aminopeptidase (PAPase I) (Bos taurus, UniProt A0ABI0NU39); test: Degradation in buffer pH 7.4 containing pyroglutamyl aminopeptidase; conditions: for half-life: calf
T1 sequence (A0ABI0NU39 1-214): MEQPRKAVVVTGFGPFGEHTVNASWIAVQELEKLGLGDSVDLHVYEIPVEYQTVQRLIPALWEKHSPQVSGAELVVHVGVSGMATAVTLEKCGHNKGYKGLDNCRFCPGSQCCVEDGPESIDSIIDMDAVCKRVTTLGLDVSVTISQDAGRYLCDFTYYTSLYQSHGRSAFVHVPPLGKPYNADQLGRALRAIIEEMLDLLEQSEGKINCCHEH
Description: (§2) Solutions of various compounds of formula I in aqueous buffer solutions or 80% human plasma solutions as well as in a buffer solution (pH 7.4) containing pyroglutamyl aminopeptidase (a calf liver preparation obtained from Boehringer, Mannheim, F.R.G.) were kept at 37° C. The initial concentration of the derivatives was in the range 10^-5 -10^-3 M. At various times an aliquot of the solutions was withdrawn and analyzed by HPLC for remaining (intact) derivative as well as for TRH. For the plasma solutions the aliquot (250 μl) withdrawn was added to 500 μl of a 2% solution of zinc sulphate in methanol-water (1:1 v/v) in order to deproteinize the plasma. After mixing and centrifugation for 3 min at 13,000 rpm, 20 μl of the clear supernatant was analyzed by HPLC as described above. The reaction conditions used for the studies with the pyroglutamyl aminopeptidase enzyme were identical to those previously described by Bundgaard & Moss (1989).
as §1

[3] = Apparent partition coefficient between 1-octanol and phosphate buffer pH 7.4; conditions: for logD: 1-octanol/0.02 M phosphate buffer pH 7.4, pH 7.4
Description: (§3) The lipophilicity of the derivatives of the present invention and of TRH was assessed by measuring the apparent partition coefficients (P) of the compounds between 1-octanol and 0.02M phosphate buffer of pH 7.4.

[4] = Chromatographic capacity factor k' by reversed-phase column chromatography (relative lipophilicity); format: physicochemical; conditions: Nova-PAK CN HP reversed-phase column; methanol-0.1% phosphoric acid (1:20 v/v) with 10^-3 M triethylamine
Description: The capacity factor k' of a solute is defined as: k'=(tr -t0)/t0 where tr is the retention time of the solute and t0 is the elution time of the solvent.

in vitro = conditions: for half-life: human, plasma
Description: as §2, §1
For the consideration of the derivatives as prodrugs of TRH a crucial point is evidently their degradation pathways. Ideally, the compounds should be hydrolyzed in plasma at the imidazole-protected moiety, releasing TRH in quantitative amounts.
The reactions taking place in plasma can be illustrated as shown in Scheme 1.

[5] = Percutaneous absorption, in vitro diffusion through excised human skin (Franz cells); conditions: for steady-state flux: 5% prodrug in aqueous solution (pH 6.0)
Description: The feasibility of achieving transdermal delivery of TRH via the prodrugs ot the present invention was evaluated by diffusion experiments in vitro using human skin samples.
Whole abdominal human skin obtained under autopsy was used. The skin was stored at -18° C. and was allowed to thaw gradually at room temperature before use. All subcutaneous fat was removed and the skin cut into pieces. […] The dermal side of the skin was exposed to the receptor medium (5 ml of 0.05M isotonic phosphate buffer solution of pH 7.2) which was stirred magnetically and kept at a constant temperature of 37° C. with a circulating water bath.
The compounds were applied as 5% w/v solutions in 0.05M phosphate buffer (final pH being 6.0) or propylene glycol (100 or 200 μl). At appropriate intervals samples of 1 ml were removed from the receptor phase and replaced with fresh buffer. The samples were immediately analyzed for TRH and prodrug content by HPLC as described above. The permeation studies of each compound in each vehicle were done in triplicate.

physchem = conditions: pH 7.4
Description: as §3

[6] = rat, in vivo, iv; cited from earlier work
[7] = in vivo, iv; cited from earlier work

Row | Half-lives at 37° C., pH 7.4 buffer [1] [h] | half-life [2] [min] | logD [3] | log k' [4] | half-life (in vitro) [min] | Compound | other results
1 | 9.0 | 7 | -0.11 |  |  | NC(=O)[C@@H]1CCCN1C(=O)[C@H](Cc1cn(C(=O)OCc2ccccc2)cn1)NC(=O)[C@@H]1CCC(=O)N1 [CH2 C6 H5] | 
2 |  |  | 1.82 |  |  | CCCCC(CC)COC(=O)n1cnc(C[C@H](NC(=O)[C@@H]2CCC(=O)N2)C(=O)N2CCC[C@H]2C(N)=O)c1 (stereo partly shown) [CH2 CH(C2 H5)C4 H9] | 
3 |  |  | 0.2 |  |  | CCC(CC)OC(=O)n1cnc(C[C@H](NC(=O)[C@@H]2CCC(=O)N2)C(=O)N2CCC[C@H]2C(N)=O)c1 [CH(C2 H5)2] | 
4 | 14.2 | 23 | -1.3 | 0.85 | 228 | CCOC(=O)n1cnc(C[C@H](NC(=O)[C@@H]2CCC(=O)N2)C(=O)N2CCC[C@H]2C(N)=O)c1 [C2 H5] | 
5 |  |  | 1.2 |  |  | CCCC(CCC)OC(=O)n1cnc(C[C@H](NC(=O)[C@@H]2CCC(=O)N2)C(=O)N2CCC[C@H]2C(N)=O)c1 [CH(C3 H7)2] | 
6 | 17.5 | 24 | 1.88 | 1.50 | 30 | CCCCCCCCOC(=O)n1cnc(C[C@H](NC(=O)[C@@H]2CCC(=O)N2)C(=O)N2CCC[C@H]2C(N)=O)c1 [n-C8 H17, N-Octyloxycarbonyl TRH] | time for 10% degradation ([1]; aqueous solution, pH 5.8, 20° C.): 76 h; steady-state flux ([5]; human skin): 0.044±0.006 μmol TRH/h/cm^2; steady-state flux ([5]; human skin, converted from μmol): 16 μg TRH/h/cm^2; flux ([5]; 5% prodrug in propylene glycol, human skin): 3.6 μg/h/cm^2; conversion of applied prodrug to parent TRH during diffusion through skin ([5]; human skin samples): Essentially all
7 | 35.8 | 29 | -0.8 | 0.96 | 396 | CC(C)OC(=O)n1cnc(C[C@H](NC(=O)[C@@H]2CCC(=O)N2)C(=O)N2CCC[C@H]2C(N)=O)c1 [CH(CH3)2] | 
8 |  |  | -1.1 |  |  | NC(=O)[C@@H]1CCCN1C(=O)[C@H](Cc1cn(C(=O)OCCCl)cn1)NC(=O)[C@@H]1CCC(=O)N1 [CH2 CH2 Cl] | 
9 |  |  |  | < 0.4 | 9 | NC(=O)[C@@H]1CCCN1C(=O)[C@H](Cc1cnc[nH]1)NC(=O)[C@@H]1CCC(=O)N1 [TRH, pGlu-L-His-L-ProNH2, reference compound] | half-life ([2]; isolated enzyme aminopeptidase, pH 7.4): 4 min; Half-lives at 37° C., pyroglutamyl aminopeptidase ([2]; pH 7.4): 4 min; Half-life at 37° C., 80% v/v human plasma (in vitro): 9 min; zero-order rate constant of degradation (in vitro): 7.2e-07 M/min; logD (physchem): -2.46; plasma half-life [6]: 4 to 6 min; plasma half-life [7]: 4 to 6 min
10 | 19.0 | 11 | -0.47 | 1.07 | 258 | CCCCOC(=O)n1cnc(C[C@H](NC(=O)[C@@H]2CCC(=O)N2)C(=O)N2CCC[C@H]2C(N)=O)c1 [n-C4 H9] | 
11 | 9.3 | 12 |  | 0.71 | 168 | COC(=O)n1cnc(C[C@H](NC(=O)[C@@H]2CCC(=O)N2)C(=O)N2CCC[C@H]2C(N)=O)c1 [CH3] | log P ([3]; octanol / 0.02 M phosphate buffer pH 7.4, 21° C.): 1.88
12 | 17.9 | 8 | 0.71 | 1.29 | 72 | CCCCCCOC(=O)n1cnc(C[C@H](NC(=O)[C@@H]2CCC(=O)N2)C(=O)N2CCC[C@H]2C(N)=O)c1 [n-C6 H13, N-Hexyloxycarbonyl TRH] | 
13 | 19.0 | 11 | -0.44 | 1.09 | 258 | CC(C)COC(=O)n1cnc(C[C@H](NC(=O)[C@@H]2CCC(=O)N2)C(=O)N2CCC[C@H]2C(N)=O)c1 [CH2 CH(CH3)2] | 

Row | Compound | Half-lives at 37° C., pH 7.4 buffer [1] [h] | half-life [2] [min] | logD [3] | log k' [4] | half-life (in vitro) [min] | other results
14 | NC(=O)[C@@H]1CCCN1C(=O)[C@H](Cc1cn(C(=O)OC2CCCCC2)cn1)NC(=O)[C@@H]1CCC(=O)N1 [C6 H10 (cyclohexyl)] | 36.8 | 22 | 0.6 | 1.28 | 384 | 
